Tested on: Radical scavenging activity
Test: Antioxidant activity assessed as DPPH radical scavenging activity by DPPH method
Format: functional
Parameters: concentration or dose not given beside the values

SMILES	Activity [%]
COc1ccc(/C=C/c2cc(=O)c3ccc(I)cc3o2)cc1	66.8
O=c1cc(/C=C/c2ccccc2)oc2cc(I)c(Cl)cc12	67.2
C/C(=C\c1cc(=O)c2ccc(I)cc2o1)c1ccccc1	69.6
C/C(=C\c1cc(=O)c2ccccc2o1)c1ccccc1	65.8
O=c1cc(/C=C/c2ccccc2)oc2ccccc12	64.4
COc1ccc(/C=C/c2cc(=O)c3c(O)cccc3o2)cc1	71.1
O=c1cc(/C=C/c2ccccc2)oc2cc(I)ccc12	65
COc1ccc(/C=C/c2cc(=O)c3cc(Cl)c(I)cc3o2)cc1	69.1
COc1ccc(/C=C/c2cc(=O)c3cc(Br)ccc3o2)cc1	60.9
C/C(=C\c1cc(=O)c2cc(Cl)c(I)cc2o1)c1ccccc1	71.4
